Laboratory results taken from patent publication US20250032493A1, “Methods for Treating Diseases Using MALT1 Inhibitors” (RARIFIED BIOSCIENCES, INC., priority 2021, published 2025).
Entries after “also recorded” stand apart in the source; their conditions may differ.

What was measured:
splenic Tregs = experiment: Rat CIA model: splenic Treg levels; assay type: in vivo; details: for reduction in the Treg levels: in comparison to vehicle
Protocol: For isolation of synovial fluid prior to study termination, animals were anesthetized and the skin on the hind limbs were separated to ensure exposure of knee joint. A small incision was made near the top of the knee joint and the articular cavity was rinsed with 60 μl phosphate-buffered saline (PBS) for 2 time and ˜50-60 μl synovial fluid was collected. The synovial fluid samples were spun down, and the supernatant stored at −80° C. prior to cytokine analysis. At study termination, plasma was prepared from whole blood and stored at −80° C. prior to cytokine analysis and measurement of total and anti-collagen IgG. Single cell suspensions were prepared from harvested spleens following standard methods and Treg frequencies measured by flow cytometry-based immunophenotyping of freshly isolated cells.
Harvested spleens were homogenized in cold PBS and cellular debris removed by passing through a […] cell strainer. The cell suspension was centrifuged at 300×g for 5 min at 4° C. and the pellet was treated with 1×RBC lysis buffer per manufacturer's protocol (Thermofisher). The washed cell pellet was resuspended for a final concentration of 5-10×10^6 cells/ml and 100 μl of cell suspension was processed for immunophenotyping. […] Cells were washed with cold FACS wash buffer (BD) and fixed with 1×FoxP3/Transcription Factor Fixation Buffer (Thermofisher) for overnight at 4° C. […] Cells were washed 2-3× with the permeabilization and wash buffer as mentioned earlier, and finally resuspended in FACS wash buffer. Samples were acquired on a BD LSRFortessa flow cytometer and data analyzed using the FlowJo software (BD).

[1] = test system: rat collagen induced arthritis (CIA) model; experiment: Rat collagen-induced arthritis model: clinical score; details: for reduction in the clinical score: in comparison to the vehicle treatment
Description: Adult female Lewis Rats (180-200 g body weight) were immunized subcutaneously with Type II bovine collagen/Incomplete Freund's Adjuvant emulsion on Day 0 and Day 7. On Day 14 rats were randomized based on clinical disease scores in different treatment groups. Rats received either once daily (q.d) dose of compounds via oral gavage or Vehicle (0.5% Carboxymethylcellulose-Na+0.5% Tween 80 in water, suspension) for 2 weeks. Naïve rats used as controls.

Tregs = experiment: Naïve mice: Treg levels after 4 weeks of dosing; assay type: in vivo; details: 100 mg/kg dose, in comparison to vehicle control
Protocol: Mice were dosed for 4 weeks with REO-751 or REO-095 and splenocytes were analyzed for Treg levels. Specifically, REO-751 or REO-095 MALT1 inhibitors were dosed at one of 1 mg/kg (mpk), 10 mg/kg (mpk), or 100 mg/kg (mpk).

MALT1 [2] = target: T1, MALT1 (Homo sapiens, UniProt Q9UDY8); experiment: Example IC50 and IC90 values of MALT1 inhibitors (blood concentration targets); assay type: cell-based; details: example values, blood concentration target; read-out: IC90
T1 sequence (Q9UDY8 1-824): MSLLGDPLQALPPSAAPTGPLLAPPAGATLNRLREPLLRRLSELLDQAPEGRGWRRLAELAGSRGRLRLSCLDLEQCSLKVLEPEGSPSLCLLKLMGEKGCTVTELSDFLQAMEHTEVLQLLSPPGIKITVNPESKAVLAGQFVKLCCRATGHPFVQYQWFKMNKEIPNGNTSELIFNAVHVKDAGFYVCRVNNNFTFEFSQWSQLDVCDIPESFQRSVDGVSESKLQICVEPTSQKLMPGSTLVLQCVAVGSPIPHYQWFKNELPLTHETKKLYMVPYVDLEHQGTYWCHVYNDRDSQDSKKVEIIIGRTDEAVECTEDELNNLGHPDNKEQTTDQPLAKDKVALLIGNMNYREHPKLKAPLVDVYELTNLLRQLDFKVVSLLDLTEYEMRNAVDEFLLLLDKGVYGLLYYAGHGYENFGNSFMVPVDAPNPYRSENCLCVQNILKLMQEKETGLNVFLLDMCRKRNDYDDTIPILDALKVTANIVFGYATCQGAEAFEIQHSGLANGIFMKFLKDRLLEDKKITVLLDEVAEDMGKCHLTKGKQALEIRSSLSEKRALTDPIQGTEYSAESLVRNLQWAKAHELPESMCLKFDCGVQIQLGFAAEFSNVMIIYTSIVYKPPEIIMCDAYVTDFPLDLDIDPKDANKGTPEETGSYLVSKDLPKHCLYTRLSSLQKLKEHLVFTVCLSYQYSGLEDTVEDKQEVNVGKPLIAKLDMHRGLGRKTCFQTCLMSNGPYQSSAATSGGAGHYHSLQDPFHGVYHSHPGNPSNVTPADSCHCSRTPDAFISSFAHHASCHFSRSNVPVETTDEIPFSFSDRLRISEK
Description: In various embodiments, the plasma PK profile of the MALT1 inhibitor refers to a time over an IC50 blood concentration target following administration to the subject. As used herein, a “time over an IC50 blood concentration target” refers to a period of time following administration in which a concentration of the MALT1 inhibitor in the subject's blood is above the IC50 value.
In various embodiments, the plasma PK profile of the MALT1 inhibitor refers to a time over an IC90 blood concentration target following administration to the subject. As used herein, a “time over an IC90 blood concentration target” refers to a period of time following administration in which a concentration of the MALT1 inhibitor in the subject's blood is above the IC90 value.

MALT1 [3] = target: T1, MALT1; experiment: IC50 and Kd values of MALT1 inhibitors (FIG. 17C)
[4] = Mouse GVHD model: pharmacokinetics; assay type: in vivo, mice; details: C57Bl/6, blood, oral; 100 mg/kg, on Day 55, mouse GVHD model; read-out: concentration at 24 hours post-administration
Protocol: (§1) At time=0, mice were dosed with 1) naive, 2) vehicle, 3) REO-751 MALT1 inhibitor (100 mg/kg), or 4) ruxolitinib (60 mg/kg). […] GVHD scores were determined by monitoring the behavior of the mice post-administration according to the following grading system.

[5] = test system: spleen TFH cells, GC B cells, Treg cells; experiment: Mouse GVHD model: spleen cell populations (TFH, GC B cells, Tregs); assay type: in vivo, mice
Description: Here, FIGS. 22C-22E show percentages of each cell population in spleen, as measured by flow cytometry.

[6] = test system: sclerodermatous GVHD (scGVHD) model; experiment: Mouse GVHD (scGVHD) model: GVHD score and progression-free survival; assay type: in vivo, mice; details: 100 mg/kg orally once daily days 21-56, at the end (Day 56)
Protocol: In this example, REO-751 MALT1 inhibitor at a dose of 100 mg/kg was administered to mice of a graft versus host disease (GVHD) model to investigate the impact of the administration of the MALT1 inhibitor. The effects of MALT1 inhibitors were evaluated in scGVHD and delayed-type hypersensitivity (DTH) models. For the scGVHD model, bone marrow (1E7 cells) and splenocytes (4E6) from LP/J donors were transferred to C57Bl/6 recipients that had received 8.5. Gy of total irradiation on the previous day. For the DTH model, female Balb/c mice were immunized with keyhole limpet hemocyanin (KLH) subcutaneously on day 0 and challenged with KLH intradermally 7 days later.
as §1
FIGS. 22A-22F show results following administration of a MALT1 inhibitor. Here, “Cpd1” and Cpd2” as shown in FIGS. 22A-22F refer to REO-751 MALT1 inhibitor. FIGS. 22A and 22B show overall survival (OS) and progression-free survival (PFS) Kaplan Meier curves, respectively, in a murine model of sclerodermatous GVHD (scGVHD) following administration of a MALT1 inhibitor. […]

IL-2R signaling (pSTAT5) = details: 1 μM, positive control
Protocol: Purified Tregs were expanded as indicated above. […] Tregs were then stimulated with 25 IU IL-2 (Peprotech) for 15 min, followed by fixation with 2% paraformaldehyde. […] Levels of pSTAT5 were analyzed on a BD LSRFortessa flow cytometer.
Next, the impact of MALT1i on IL2R signaling was investigated. IL-2R signaling results in phosphorylation of STAT5 (pSTAT5) and is dependent on JAK1/3. Therefore, a flow cytometric readout of pSTAT5 was used to measure IL-2R activity and the JAK1/3-inhibitor tofacitinib served as a positive control for inhibition of pSTAT5.

Structure (SMILES) | reduction in the Treg levels (splenic Tregs; 3 mg/kg dose, CIA rats) | reduction in the Treg levels (splenic Tregs; 10 mg/kg dose, CIA rats) | reduction in the Treg levels (splenic Tregs; 30 mg/kg dose, CIA rats) | reduction in the clinical score ([1]; 3 mg/kg dose) | reduction in the clinical score ([1]; 10 mg/kg dose) | reduction in the clinical score ([1]; 30 mg/kg dose) | log10AUC value at ~50% reduction in the clinical score ([1]; rat CIA model) | reduction of Treg levels (Tregs) | IC90 (MALT1 [2]) | dose-dependent efficacy (FIG. 12A) ([1]; rat CIA model) | other results
CO[C@@H](C)c1c(Nc2ccc([C@H](N(C)C(=O)C3CCN(C(C)=O)CC3)C(F)(F)F)cc2)cnc2cc(Cl)nn12 [REO-076] | 24% | 30% | 40% | 23% | 42% | 74% | ~1.85 μg*hr/mL | – | – | – | log10AUC value at ~40% reduction in Treg levels (splenic Tregs; rat CIA model): ~2.25 μg*hr/mL
O=C(Nc1ccnc(C(F)(F)F)c1)c1cnn(-c2cccc3c(=O)[nH]ccc23)c1C(F)(F)F [REO-095] | – | – | – | – | – | – | – | 32% | – | – | –
CO[C@@H](C)c1c(Nc2ccc([C@H](N(C)C(=O)C3CCS(=O)(=O)CC3)C(F)(F)F)cc2)cnc2cc(Cl)nn12 [REO-528] | 3% | 36% | 37% | 24% | 59% | 74% | ~1.2 μg*hr/mL | – | 5.78 µM | showed efficacy in a rat CIA model in a dose-dependent manner | dose-dependent reduction of Tregs (FIG. 12B) (splenic Tregs; rat CIA model): dose-dependent reduction of Tregs was observed; log10Cmax value at ~40% reduction in Treg levels (splenic Tregs; rat CIA model): ~3.9 ng/mL; log10Ctrough value at ~50% reduction in Treg levels (splenic Tregs; rat CIA model): ~2.6 ng/mL; qualitative Treg impact (FIG. 11) (splenic Tregs; rat CIA model): low Treg impact; log10Cmax value at ~50% reduction in the clinical score ([1]; rat CIA model): ~3.3 ng/mL; log10Ctrough value at ~50% reduction in the clinical score ([1]; rat CIA model): ~2.2 ng/mL; qualitative efficacy (FIG. 11) ([1]; rat CIA model): high efficacy
O=C(Nc1ccnc(C(F)(F)F)c1)Nc1cnn2ccc(Cl)c2c1C1CC1 [REO-703] | – | – | – | 35% | 57% | 60% | ~1.2 μg*hr/mL | – | 4.95 µM | showed efficacy in a rat CIA model in a dose-dependent manner | reduction in the Treg levels (splenic Tregs; CIA rats, 3, 10 and 30 mg/kg): none of the doses of REO-703 resulted in a statistically significant reduction; also recorded: did not exhibit reduction of Tregs
CO[C@@H](C)c1c(NC(=O)Nc2cnc(-n3nccn3)c(Cl)c2)cnc2cc(Cl)nn12 [REO-751] | – | – | – | – | – | – | – | 76% | – | – | potency (IC50 values and Kd value) in comparison to REO-095 (MALT1 [3]): increased potency; concentration at 24 h [4]: 385 ng/mL; difference in Treg with treatment [5]: No difference; mice achieving progression free survival [6]: 40%
C[C@@H]1CCN(C(=O)CC#N)C[C@@H]1N(C)c1ncnc2[nH]ccc12 [tofacitinib, reference compound] | – | – | – | – | – | – | – | – | – | – | basal levels of pSTAT5 in Tregs (IL-2R signaling (pSTAT5)): reduced; reduction in the endpoint clinical score ([1]; 5 mg/kg dose): 75%
